In one assay the test system is OVCA432. The assay can be described thus: Growth inhibition (sulforhodamine B assay), single agents and combination. Type of assay: cell-based, human. How it is done: (§1) The following human ovarian carcinoma cell lines were tested: A2780 was obtained from Dr. R. F. Ozols (National Cancer Institute, Bethesda, Md., USA); IGROV-1 was obtained from Dr. J. Benard (Villejuif, France); OVCA432 was obtained from Dr. R. C. Knapp (Boston, Mass., USA); OAW42 and SKOV-3 were purchased from ATCC (Rockville, Md., USA). A2780/HPR, a 4-HPR— resistant ovarian carcinoma cell line, was obtained in our laboratory by continuous exposure of A2780 cells to increasing concentrations of 4-EPR as previously described (Appierto et al., Br. J. Cancer, 2001, 84:1528–1534; Prinetti et al., J. Biol. Chem., 2003, 278:5574–5583). Briefly, cells surviving 60 transplants in 4-HPR —containing medium (3 transplants at 1 μM, 11 transplants at 2 μM, 8 transplants at 3 μM, and 38 transplants at 5 μM) were cloned by limiting dilution. […] Therefore, A2780/HPR cells were continuously maintained in 5 μM 4-HPR and seeded without 4-HPR in all the experiments performed to test their sensitivity to 4-oxo-4-HPR.
(§2) The following human breast tumor cell lines, obtained from Dr. R. Sutherland (Garvan Institute, Sydney, Australia) were tested: T-47D, BT-20 and MCF-7. The following human neuroblastoma cell lines, purchased from ATCC, were tested: SK-N-BE, SK-N-SH, SK-N-MC, and GI-LI-N. All cell lines were grown in monolayer, in medium containing 10% fetal bovine serum (Invitrogen) in 5% CO2 at 37° C. The medium for A2780, A2780/HPR, IGROV-1, OVCA432, SKOV-3, T-47D, BT-20, MCF-7, GI-LI-N and SK-N-BE cells was RPMI 1640 (Cambrex, Verviers, Belgium) and the medium for OAW42, SK-N-MC and SK-N-SH cells was EMEM (ATCC).
(§3) For the growth inhibition assays, cells were seeded at a density of 3500 cells per well in 96 cluster tissue culture plates, and treated 24 hr after seeding with different concentrations of 4-oxo-4-HPR or 4-HPR. 4-oxo-4-HPR was dissolved in absolute ethanol and 4-HPR (obtained from Dr. J. A. Crowell —NCI Bethesda, Md., USA) was dissolved in Me2SO. […] Control cultures received the same amount of ethanol or Me2SO as the treated cultures. 72 hr after treatment cell number was estimated by using the sulforhodamine B assay according to Monks et al., (J. Natl. Cancer, 1991, 11: 757–766). The survival of treated cells was calculated for the various drug concentrations as percentage of the survival of control cells. The antiproliferative activity of 4-oxo-4-HPR and 4-HPR in each cell line, was tested in three separate experiments and the average values ±SD are reported in FIGS. 2, 3, and 4.
(§4) The antiproliferative effect of the combination of the two drugs, administered at one single dose, was also tested in other ovarian carcinoma cell lines and in breast tumor cell lines. The type of interaction between 4-HPR and 4-oxo-4-HPR was assessed by the method of Drevinko et al., as described in Cancer Biochem. Biophys., 1976, 1:187–195. For this evaluation the drugs were assumed to provide independent effects. The combination index (CI) was calculated as follows: survival fraction (SF) of the combination of 4-HPR+4-oxo-4-HPR divided by (SF 4-HPR×SF 4-oxo-4-HPR). The results for CI are defined as follows: CI=1 indicates an additive effect, CI<1 indicates a supra-additive effect and CI>1 indicates a sub-additive effect.
On the technique in general: In SRB staining, fixed cells bind dye roughly in proportion to their protein.

The subject of the next assay is A2780/HPR. The description is as above. In kind it is cell-based, human. The note with it: for Survival (% control cells): single experiments. How it is done: as §1, §2, §3, §4
In another assay the test system is IGROV-1. Described as above. Type of assay: cell-based, human. How it is done: as §1, §2, §3, §4
The next assay concerns GI-LI-N. As to the kind of experiment: Growth inhibition (sulforhodamine B assay). Type of assay: cell-based, human. The note with it: for IC50: Homo sapiens, 72 h, read-out: 50% Inhibitory Concentrations (IC50) at 72 h. As to the method:
as §2, §3

Another assay concerns SK-N-MC. As to the kind of experiment: Growth inhibition (sulforhodamine B assay). Type of assay: cell-based, human. To be noted: for IC50: Homo sapiens, 72 h, read-out: 50% Inhibitory Concentrations (IC50) at 72 h. How it is done:
as §2, §3

In another assay the test system is SK-N-BE. The assay can be described thus: Growth inhibition (sulforhodamine B assay). To be noted: for IC50: Homo sapiens, 72 h, read-out: 50% Inhibitory Concentrations (IC50) at 72 h. Type of assay: cell-based, human. As to the method: as §2, §3
The next assay has as its system SK-N-SH. The assay can be described thus: Growth inhibition (sulforhodamine B assay). In kind it is cell-based, human. The note with it: for IC50: Homo sapiens, 72 h, read-out: 50% Inhibitory Concentrations (IC50) at 72 h. How it is done: as §2, §3
The next assay deals with SW626. The assay can be described thus: Antiproliferative effect, single agents and combination. To be noted: single agent 1 μM, 72 h, single experiments. In kind it is cell-based, human. As to the method: as §3
The antiproliferative effect of the combination of the two drugs, administered at one single dose, was also tested in other ovarian carcinoma cell lines and in breast tumor cell lines. The type of interaction between 4-HPR and 4-oxo-4-HPR was assessed by the method of Drevinko et al., as described in Cancer Biochem. Biophys., 1976, 1:187–195. […] The combination index (CI) was calculated as follows: survival fraction (SF) of the combination of 4-HPR+4-oxo-4-HPR divided by (SF 4-HPR×SF 4-oxo-4-HPR). […]

The subject of another assay is A2780. As to the kind of experiment: Growth inhibition (sulforhodamine B assay), single agents and combination. In kind it is cell-based. The note with it: Homo sapiens, read-out: 50% Inhibitory Concentrations (IC50) at 72 h. As to the method:
The following human ovarian carcinoma cell lines were tested: A2780 was obtained from Dr. R. F. Ozols (National Cancer Institute, Bethesda, Md., USA); IGROV-1 was obtained from Dr. J. Benard (Villejuif, France); OVCA432 was obtained from Dr. R. C. Knapp (Boston, Mass., USA); OAW42 and SKOV-3 were purchased from ATCC (Rockville, Md., USA). A2780/HPR, a 4-HPR— resistant ovarian carcinoma cell line, was obtained in our laboratory by continuous exposure of A2780 cells to increasing concentrations of 4-EPR as previously described (Appierto et al., Br. J. Cancer, 2001, 84:1528–1534; Prinetti et al., J. Biol. Chem., 2003, 278:5574–5583). Briefly, cells surviving 60 transplants in 4-HPR —containing medium (3 transplants at 1 μM, 11 transplants at 2 μM, 8 transplants at 3 μM, and 38 transplants at 5 μM) were cloned by limiting dilution. […]
For the growth inhibition assays, cells were seeded at a density of 3500 cells per well in 96 cluster tissue culture plates, and treated 24 hr after seeding with different concentrations of 4-oxo-4-HPR or 4-HPR. […] The survival of treated cells was calculated for the various drug concentrations as percentage of the survival of control cells. […]
Studies were performed to assess whether 4-oxo-4-HPR potentiates the tumor growth inhibitory effects of 4-HPR. […] The fractional survival (f) after 3 days of treatment was calculated for each experimental condition. […]

The subject of another assay is BT-20. The description is as above. In kind it is cell-based, human. As to the method: as §2, §3, §4
A further assay relates to T-47D. The description is as above. In kind it is cell-based, human. To be noted: for IC50: Homo sapiens, T47D, read-out: 50% Inhibitory Concentrations (IC50) at 72 h; for IC50 / Survival (% control cells): 72 h; for Survival (% control cells): single agent 1 μM. How it is done:
as §2, §3, §4

Where [1] appears, read: OVCA432; single agent 1 μM; 72 h; single experiments.
Where [2] appears, read: IGROV-1; single agent 1 μM; 72 h; single experiments.

Values joined by “and” are separate entries in the source; they are usually repeats but may differ in a detail not shown here. Equal values may be shown once. Read-outs that look alike come from different tables or passages of the source.

For `CC1=C(/C=C/C(C)=C/C=C/C(C)=C/C(=O)Nc2ccc(O)cc2)C(C)(C)CCC1` [4-HPR, N-(4-hydroxyphenyl)retinamide, reference compound], the IC50 in the assay with OVCA432 (Homo sapiens; OVCA432; 72 h; read-out: 50% Inhibitory Concentrations (IC50) at 72 h) is 8000 nM; in the assay with A2780/HPR (Homo sapiens, A2780/HPR (4-HPR-resistant), 72 h, read-out: 50% Inhibitory Concentrations (IC50) at 72 h), 8000 nM; in the assay with IGROV-1 (Homo sapiens; IGROV-1; 72 h; read-out: 50% Inhibitory Concentrations (IC50) at 72 h), 5000 nM; in the assay with GI-LI-N (GI-LI-N) it was 700 nM; in the assay on SK-N-MC, 700 nM; in the assay with SK-N-BE (SK-N-BE) it was 5000 nM. The IC50 in the assay with SK-N-SH was 5000 nM; in the assay with A2780 (A2780, 72 h, calculated from graphs), 1500 nM; with BT-20 (Homo sapiens; BT-20; 72 h; read-out: 50% Inhibitory Concentrations (IC50) at 72 h) it was 7000 nM; in the assay with T-47D (T-47D) it was 4000 nM. Moreover, the “Survival (% control cells)” value in the assay on OVCA432 (setting [1]) is 115 % control cells and 105 % control cells; with A2780/HPR (A2780/HPR, 4-HPR 5 μM, 72 h), 81 % control cells and 89 % control cells; with IGROV-1 (setting [2]), 97 % control cells and 91 % control cells; with SW626 it was 96 % control cells and 98 % control cells; in the assay with BT-20 (BT-20; single agent 1 μM; 72 h) it was 89 % control cells; in the assay with T-47D (T-47D) it was 90 % control cells.

Turning to `CC1=C(/C=C/C(C)=C/C=C/C(C)=C/C(=O)Nc2ccc(O)cc2)C(C)(C)CCC1=O` [4-oxo-4-HPR, 4-oxo-N-(4-hydroxyphenyl)retinamide], the IC50 worked out at 2500 nM in the assay with OVCA432 (Homo sapiens, OVCA432, 72 h, read-out: 50% Inhibitory Concentrations (IC50) at 72 h); 2000 nM in the assay with IGROV-1 (Homo sapiens, IGROV-1, 72 h, read-out: 50% Inhibitory Concentrations (IC50) at 72 h); 600 nM in the assay with GI-LI-N; 400 nM in the assay with SK-N-MC; 1000 nM with SK-N-BE; 3000 nM with SK-N-SH. The IC50 in the assay on A2780 (A2780, 72 h) is 600 nM; in the assay on BT-20 (Homo sapiens, BT-20, 72 h, read-out: 50% Inhibitory Concentrations (IC50) at 72 h), 2000 nM; with T-47D, 2500 nM. Besides, the “Survival (% control cells)” value was 98 % control cells and 102 % control cells in the assay on OVCA432 (setting [1]); 96 % control cells and 84 % control cells and 71 % control cells in the assay on A2780/HPR (A2780/HPR, 4-oxo-4-HPR 0.3 μM, 72 h); 96 % control cells and 76 % control cells with IGROV-1 (setting [2]); 90 % control cells and 98 % control cells in the assay with SW626; 70 % control cells in the assay on BT-20 (BT-20; single agent 1 μM; 72 h); 94 % control cells in the assay on T-47D (T-47D). In addition, in the assay on A2780/HPR (A2780/HPR, 72 hr, 0.3 to 10 μM), the “tumor cell survival (FIG. 2), in words” value was “highly effective”. The “cell sensitivity (FIG. 4), compared with 4-HPR, in words” value with GI-LI-N (GI-LI-N, 72 hr) is listed as “equally sensitive”; in the assay with SK-N-MC (72 hr) it was “more sensitive only at the lowest concentration tested (0.3 μM)”; with SK-N-BE (SK-N-BE, 72 hr), “more sensitive to 4-oxo-HPR than to 4-HPR”; in the assay with SK-N-SH (72 hr) it was “more sensitive to 4-oxo-HPR than to 4-HPR”. For the same compound, the “tumor cell survival (FIG. 3), compared with 4-HPR, in words” value in the assay with BT-20 (BT-20; 72 hr) is recorded as “more potent than 4-HPR”; in the assay on T-47D (T-47D, 72 hr) it was “similarly effective”.

The values above are taken from patent US7169813B2, “4-oxo-fenretinide, administered alone and in combination with fenretinide, as preventive and therapeutic agent for cancer” (Fondazione IRCCS “Istituto Nazionale Dei Tumori”, priority 2004, dated 2007).
